Structures can show the parent of a compound that is named as a salt.
What was measured:
[1] = cited from earlier work
carbonic anhydrase = carbonic anhydrase inhibition (concentration for 50% inhibition); type: biochemical; details: carbonic anhydrase inhibitory properties; read-out: Conc. for 50% Inhibition

Structure (SMILES)	water solubility [1]	IC50 (carbonic anhydrase)
CC(=O)Nc1nnc(S(N)(=O)=O)s1 [Acetazolamide, acetazolamide]	about 0.01 % w/v	
CC(=O)N1CCC[C@H]1C(=O)Nc1ccc(S(N)(=O)=O)cc1 [4-(N-acetyl-L-prolyl-amino)benzenesulfonamide]		67.5 nM
NS(=O)(=O)c1ccc(NC(=O)[C@@H]2CCCN2)cc1 [4-(L-prolylamino)benzenesulfonamide hydrochloride]		94.9 nM

— US4985417A, “Treatment of glaucoma” (priority 1989, dated 1991)
